In PubChem BioAssay (NCI):
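Protocol summary: plate cells (96-well), add compound at 5 concentrations, incubate 48 h, interpolate endpoints linearly. Definition used: TGI = concentration required for complete inhibition of growth.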

How the values were obtained:
Test in all cases: NCI tumour cell line growth inhibition, 48 h
UACC-257 melanoma = system: UACC-257 melanoma
MCF7 breast = system: MCF7 breast
SN12C renal = system: SN12C renal
SF-295 CNS = system: SF-295 CNS
NCI-H460 lung = system: NCI-H460 lung
U251 CNS = system: U251 CNS
HCT-15 colon = system: HCT-15 colon
NCI/ADR-RES ovarian = system: NCI/ADR-RES ovarian
RPMI-8226 leukemia = system: RPMI-8226 leukemia
786-0 renal = system: 786-0 renal
OVCAR-5 ovarian = system: OVCAR-5 ovarian
T-47D breast = system: T-47D breast
PC-3 prostate = system: PC-3 prostate
SK-OV-3 ovarian = system: SK-OV-3 ovarian
COLO 205 colon = system: COLO 205 colon
MDA-MB-435 = system: MDA-MB-435
OVCAR-4 ovarian = system: OVCAR-4 ovarian
SW-620 colon = system: SW-620 colon
LOX IMVI melanoma = system: LOX IMVI melanoma
SK-MEL-2 melanoma = system: SK-MEL-2 melanoma
HOP-62 NSCLC = system: HOP-62 NSCLC
MALME-3M melanoma = system: MALME-3M melanoma
MOLT-4 leukemia = system: MOLT-4 leukemia
ACHN renal = system: ACHN renal
OVCAR-3 ovarian = system: OVCAR-3 ovarian
HS 578T breast = system: HS 578T breast
EKVX NSCLC = system: EKVX NSCLC
SR leukemia = system: SR leukemia
SNB-19 CNS = system: SNB-19 CNS
HL-60(TB) leukemia = system: HL-60(TB) leukemia
A498 renal = system: A498 renal
HT29 colon = system: HT29 colon
OVCAR-8 ovarian = system: OVCAR-8 ovarian
CAKI-1 renal = system: CAKI-1 renal
IGROV1 ovarian = system: IGROV1 ovarian
NCI-H522 lung = system: NCI-H522 lung
M14 melanoma = system: M14 melanoma
K-562 leukemia = system: K-562 leukemia
CCRF-CEM leukemia = system: CCRF-CEM leukemia
HCT-116 colon = system: HCT-116 colon
UACC-62 melanoma = system: UACC-62 melanoma
BT-549 breast = system: BT-549 breast
UO-31 renal = system: UO-31 renal
SK-MEL-28 melanoma = system: SK-MEL-28 melanoma
HCC-2998 colon = system: HCC-2998 colon
KM12 colon = system: KM12 colon
SF-268 CNS = system: SF-268 CNS
MDA-N = system: MDA-N
A549 NSCLC = system: A549 NSCLC
HOP-92 NSCLC = system: HOP-92 NSCLC
SK-MEL-5 melanoma = system: SK-MEL-5 melanoma
TK-10 renal = system: TK-10 renal
DU-145 prostate = system: DU-145 prostate
RXF 393 renal = system: RXF 393 renal
MDA-MB-231 breast = system: MDA-MB-231 breast
SF-539 CNS = system: SF-539 CNS
NCI-H23 lung = system: NCI-H23 lung
NCI-H226 lung = system: NCI-H226 lung
SNB-75 CNS = system: SNB-75 CNS

O=[N+]([O-])c1ccc(SN=S=NSc2cccc(SN=S=NSc3ccc([N+](=O)[O-])cc3)c2)cc1 showed a TGI (UACC-257 melanoma) greater than 100 µM, a TGI (MCF7 breast) of 75 µM and a TGI (SN12C renal) of 29.2 µM. The TGI (SF-295 CNS) was greater than 100 µM, the TGI (NCI-H460 lung) was greater than 100 µM and the TGI (U251 CNS) was 32 µM. The TGI (HCT-15 colon) was 57.8 µM, the TGI (NCI/ADR-RES ovarian) was greater than 100 µM and the TGI (RPMI-8226 leukemia) was greater than 100 µM. It also gave a TGI (786-0 renal) of 27.2 µM, a TGI (OVCAR-5 ovarian) of 74.3 µM and a TGI (T-47D breast) of 38.9 µM. For the same compound, the TGI (PC-3 prostate) was 40.1 µM, the TGI (SK-OV-3 ovarian) was greater than 100 µM and the TGI (COLO 205 colon) was greater than 100 µM. It also gave a TGI (MDA-MB-435) of 71.2 µM, a TGI (OVCAR-4 ovarian) greater than 100 µM and a TGI (SW-620 colon) of 60.3 µM. It also gave a TGI (LOX IMVI melanoma) of 35.5 µM, a TGI (SK-MEL-2 melanoma) of 34.1 µM and a TGI (HOP-62 NSCLC) greater than 100 µM. The TGI (MALME-3M melanoma) was greater than 100 µM, the TGI (MOLT-4 leukemia) was greater than 100 µM and the TGI (ACHN renal) was greater than 100 µM. For the same compound, the TGI (OVCAR-3 ovarian) was greater than 100 µM, the TGI (HS 578T breast) was greater than 100 µM and the TGI (EKVX NSCLC) was greater than 100 µM. For the same compound, the TGI (SR leukemia) was greater than 100 µM, the TGI (SNB-19 CNS) was greater than 100 µM and the TGI (HL-60(TB) leukemia) was 83.7 µM. It also gave a TGI (A498 renal) greater than 100 µM, a TGI (HT29 colon) greater than 100 µM and a TGI (OVCAR-8 ovarian) of 53.4 µM. It also gave a TGI (CAKI-1 renal) of 41.1 µM, a TGI (IGROV1 ovarian) greater than 100 µM and a TGI (NCI-H522 lung) of 34.3 µM. It also gave a TGI (M14 melanoma) greater than 100 µM, a TGI (K-562 leukemia) greater than 100 µM and a TGI (CCRF-CEM leukemia) of 42.5 µM. For the same compound, the TGI (HCT-116 colon) was greater than 100 µM, the TGI (UACC-62 melanoma) was greater than 100 µM and the TGI (BT-549 breast) was 40.6 µM. The TGI (UO-31 renal) was 70.2 µM, the TGI (SK-MEL-28 melanoma) was greater than 100 µM and the TGI (HCC-2998 colon) was greater than 100 µM. The TGI (KM12 colon) was greater than 100 µM, the TGI (SF-268 CNS) was greater than 100 µM and the TGI (MDA-N) was 98.8 µM. The TGI (A549 NSCLC) was greater than 100 µM, the TGI (HOP-92 NSCLC) was greater than 100 µM and the TGI (SK-MEL-5 melanoma) was greater than 100 µM.
Compound O=C/C(=C1/C=Cc2cc([N+](=O)[O-])ccc2S1)c1ccccc1 has a TGI (UACC-257 melanoma) greater than 100 µM, a TGI (MCF7 breast) greater than 100 µM and a TGI (SN12C renal) greater than 100 µM. The TGI (SF-295 CNS) was greater than 100 µM, the TGI (NCI-H460 lung) was greater than 100 µM and the TGI (U251 CNS) was greater than 100 µM. The TGI (HCT-15 colon) was greater than 100 µM, the TGI (NCI/ADR-RES ovarian) was greater than 100 µM and the TGI (RPMI-8226 leukemia) was greater than 100 µM. For the same compound, the TGI (786-0 renal) was greater than 100 µM, the TGI (OVCAR-5 ovarian) was greater than 100 µM and the TGI (T-47D breast) was greater than 100 µM. It also gave a TGI (PC-3 prostate) greater than 100 µM, a TGI (TK-10 renal) greater than 100 µM and a TGI (SK-OV-3 ovarian) greater than 100 µM. For the same compound, the TGI (COLO 205 colon) was greater than 100 µM, the TGI (MDA-MB-435) was greater than 100 µM and the TGI (OVCAR-4 ovarian) was greater than 100 µM. The TGI (LOX IMVI melanoma) was greater than 100 µM, the TGI (SK-MEL-2 melanoma) was greater than 100 µM and the TGI (DU-145 prostate) was greater than 100 µM. For the same compound, the TGI (HOP-62 NSCLC) was greater than 100 µM, the TGI (MALME-3M melanoma) was greater than 100 µM and the TGI (MOLT-4 leukemia) was greater than 100 µM. The TGI (ACHN renal) was greater than 100 µM, the TGI (RXF 393 renal) was greater than 100 µM and the TGI (OVCAR-3 ovarian) was greater than 100 µM. It also gave a TGI (HS 578T breast) greater than 100 µM, a TGI (EKVX NSCLC) greater than 100 µM and a TGI (SR leukemia) greater than 100 µM. For the same compound, the TGI (SNB-19 CNS) was greater than 100 µM, the TGI (HL-60(TB) leukemia) was greater than 100 µM and the TGI (A498 renal) was greater than 100 µM. It also gave a TGI (MDA-MB-231 breast) greater than 100 µM, a TGI (HT29 colon) greater than 100 µM and a TGI (CAKI-1 renal) greater than 100 µM. For the same compound, the TGI (IGROV1 ovarian) was greater than 100 µM, the TGI (NCI-H522 lung) was greater than 100 µM and the TGI (SF-539 CNS) was greater than 100 µM. The TGI (NCI-H23 lung) was greater than 100 µM, the TGI (M14 melanoma) was greater than 100 µM and the TGI (K-562 leukemia) was greater than 100 µM. The TGI (CCRF-CEM leukemia) was greater than 100 µM, the TGI (HCT-116 colon) was greater than 100 µM and the TGI (NCI-H226 lung) was greater than 100 µM. It also gave a TGI (UO-31 renal) greater than 100 µM, a TGI (SK-MEL-28 melanoma) greater than 100 µM and a TGI (HCC-2998 colon) greater than 100 µM. It also gave a TGI (SNB-75 CNS) greater than 100 µM, a TGI (SF-268 CNS) greater than 100 µM and a TGI (MDA-N) greater than 100 µM. The TGI (A549 NSCLC) was greater than 100 µM, the TGI (HOP-92 NSCLC) was greater than 100 µM and the TGI (SK-MEL-5 melanoma) was greater than 100 µM.
